Like-named read-outs stand apart in the source and are kept apart here.
Columns and labels:
[1] = target: trypanosome alternative oxidase (TAO) (Trypanosoma brucei brucei, UniProt Q26710); experiment: biochemical
cytochrome bc1 complex = conditions: cited from earlier work
T. vivax = conditions: T. vivax-infected mouse; single intramuscular dose of 50 mg/kg or 6 mg/kg on 4 consecutive days; cited from earlier work
[2] = design: method as in PMID 30693533; conditions: cited from earlier work
[3] = target: alternative oxidase of Trypanosoma brucei (TAO); conditions: cited from earlier work; for pIC50 Exp.: training set, calculated as -log IC50
[4] = IC50, recombinant AOX expressed in E. coli membranes, mean ± SD of n = 3 isolations, 37 °C, pH 7.4, 1.25 mM NADH, 1 mM KCN
[5] = pIC50 Exp, external validation set, -log IC50 of values measured by respirometry
[6] = wild type TAO, Table 2, read-out: IC50
[7] = read-out: IC50 (50% inhibitory concentration), against TAO

Chain of trypanosome alternative oxidase (TAO) (Q26710 whole entry): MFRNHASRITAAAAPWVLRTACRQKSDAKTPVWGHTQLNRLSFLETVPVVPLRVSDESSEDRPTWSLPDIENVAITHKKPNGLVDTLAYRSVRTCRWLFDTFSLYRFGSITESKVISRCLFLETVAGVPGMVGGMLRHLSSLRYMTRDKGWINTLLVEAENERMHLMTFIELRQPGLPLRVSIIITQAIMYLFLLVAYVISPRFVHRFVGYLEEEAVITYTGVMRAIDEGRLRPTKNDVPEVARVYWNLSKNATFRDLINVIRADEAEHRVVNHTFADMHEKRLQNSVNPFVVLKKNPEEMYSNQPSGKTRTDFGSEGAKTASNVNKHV

Compound | IC50 [3, 7] [nM] | pIC50 Exp. [3] | other results
CC(/C=C/[C@@]1(C)[C@H](C)CCC(=O)[C@@H]1C)=C\Cc1c(O)c(Cl)c(C)c(C=O)c1O [Ascochlorin] | – | – | IC50 [1, 4]: ~7 nM; IC50 [1, 5]: 7.4 nM; inhibition of cytochrome bc1 complex (cytochrome bc1 complex): potent inhibitor
C/C(=C\Cc1c(O)c(Cl)c(C)c(C=O)c1O)CC/C=C(\C)[C@@H]1CC(=O)C(C)(C)O1 [Ascofuranone] | – | – | treatment outcome (T. vivax): successful treatment; blood clearance [2]: rapid; oral bioavailability [2]: low; inhibition of mammalian cytochrome bc1 complex (cytochrome bc1 complex; mammalian, concluded from survival of mice following AF treatment): not an effective inhibitor
CC(C)=CCC/C(C)=C/Cc1c(O)c(Cl)c(C)c(C=O)c1O [Colletochlorin B] | – | – | IC50 [3, 6]: 0.2 nM
CC(C)=CCc1c(O)c(Cl)c(C)c(C=O)c1O [Colletochlorin D] | – | – | IC50 [1, 5]: 33 nM
C/C(=C\Cc1c(O)c(Cl)c(C)c(C=O)c1O)CC/C=C(\C)COC(=O)C(C)(C)C [Compound 1] | 0.4 | 9.398 | –
C/C(=C\CC/C(C)=C/Cc1c(O)c(Cl)c(C)c(C=O)c1O)CO [Compound 2] | 1.2 | 8.921 | –
CC(=O)OC(C)/C(C)=C/CC/C(C)=C/Cc1c(O)c(Cl)c(C)c(C=O)c1O (stereo not shown) [Compound 3] | 1.4 | 8.854 | –
C/C=C/c1c(O)c(Cl)c(C)c(C=O)c1O [Compound 7a] | – | 7.000 | –
CCC/C=C/c1c(O)c(Cl)c(C)c(C=O)c1O [Compound 7b] | 3.8 | 8.420 | –
Cc1c(Cl)c(O)c(CCCCCCCCO)c(O)c1C=O [Compound 11] | 6 | 8.222 | –
Cc1c(Cl)c(O)c(CCCCCCCC(=O)O)c(O)c1C=O [Compound 12] | 40 | 7.398 | –
CC(=O)c1c(C)c(Cl)c(O)c(C/C=C(\C)CC/C=C(\C)C2CC(=O)C(C)(C)O2)c1O (stereo not shown) [Compound 14] | 2.5 | 8.602 | –
CC(=O)c1c(C)c(Cl)c(O)c(C/C=C(\C)CC/C=C(\C)COC(=O)C(C)(C)C)c1O [Compound 15] | 0.7 | 9.155 | –
CC(=O)c1c(C)c(Cl)c(O)c(C/C=C(\C)CCC=C(C)C)c1O [Compound 16] | – | 9.824 | IC50 [3, 6]: 0.15 nM
C/C(=C\Cc1c(O)c(Cl)c(C)c(/C=N\O)c1O)CC/C=C(\C)C1CC(=O)C(C)(C)O1 (stereo not shown) [Compound 17] | 28 | 7.553 | –
COC(=O)c1c(C)c(Cl)c(O)c(C/C=C(\C)CCC=C(C)C)c1O [Compound 18] | 45 | 7.347 | –
CCCCCCCCc1c(O)c(Cl)c(C)c([N+](=O)[O-])c1O [Compound 20] | 0.45 | 9.347 | –
C/C(=C\Cc1c(O)c(Cl)cc(C=O)c1O)CC/C=C(\C)C1CC(=O)C(C)(C)O1 (stereo not shown) [Compound 25] | 0.45 | 9.347 | –
CC(C)=CCC/C(C)=C/Cc1c(O)c(Cl)cc(C=O)c1O [Compound 26] | 0.23 | 9.638 | –
CC(C)=CCC/C(C)=C/Cc1c(O)cc(C)c(C=O)c1O [Compound 27] | 0.5 | 9.301 | –
CC(C)=CCC/C(C)=C/Cc1c(O)ccc(C=O)c1O [Compound 28] | 38 | 7.420 | –
COc1c(Cl)c(C)c(C=O)c(O)c1C/C=C(\C)CC/C=C(\C)C1CC(=O)C(C)(C)O1 (stereo not shown) [Compound 29] | 4 | 8.398 | –
CC(C)=CCC/C(C)=C/CC/C(C)=C/Cc1c(O)c2ccccc2oc1=O [Ferulenol] | – | – | IC50 [1, 5]: 53.1 nM
CCCCCCCCOC(=O)c1cc(O)c(O)c(O)c1 [Octyl gallate] | – | – | IC50 [1, 5]: 230 nM
CCCOC(=O)c1cc(O)c(O)c(O)c1 [Propyl gallate] | – | – | IC50 [1, 4]: 1400 nM; IC50 ([1]; external validation set, -log IC50 of values measured by respirometry, read-out: pIC50 Exp (converted)): 1400 nM; IC50 [3, 6]: 200 nM

Source: paper PMC7904559, “QSAR and molecular docking for the search of AOX inhibitors: a rational drug discovery approach” (Journal of Computer-Aided Molecular Design, 2020)
